This assay addresses T1, Purified ERAP1 (37-941)-10His (ERAP1) (Homo sapiens, UniProt Q9NZ08).
T1 construct: Purified ERAP1 (37-941)-10His (ERAP1)
The experiment in a line: ERAP1 mediated hydrolysis of an amide substrate (10-mer inhibition assay), biochemical system. Conditions: 10-mer substrate, 23° C., 1 h, excitation 279 nm / emission 355 nm; read-out: IC50 vs Decapeptide WRVYEKC(Dnp)ALK-acid (where Dnp is Dinitrophenyl maleimide) (10-mer). How it is done:
However, as ERAP1 hydrolyses the N-terminal amide bond and tryptophan is released this internal quenching is lost and the reaction is monitored by the increase in tryptophan fluorescence over the course of the assay. For the purposes of this application this assay is referred to as the “10mer inhibition assay” and compound potencies are calculated and expressed as IC50 as would be familiar to a person skilled in the art.
Biological Assay 1: ERAP1 Mediated Hydrolysis of an Amide Substrate Measured in a Biochemical System
Decapeptide WRVYEKC(Dnp)ALK-acid (where Dnp is Dinitrophenyl maleimide) (10-mer) L-Leucine 7-amido-4-methylcoumarin (L-AMC)
12.5 μL ERAP1 enzyme in 1×AB was combined with 250 nL test compound in DMSO. […] For detection, plates were read at excitation 365 nm and emission 442 nm (L-AMC) or excitation 279 nm and emission 355 nm (10-mer).
T1 sequence (Q9NZ08 37-941): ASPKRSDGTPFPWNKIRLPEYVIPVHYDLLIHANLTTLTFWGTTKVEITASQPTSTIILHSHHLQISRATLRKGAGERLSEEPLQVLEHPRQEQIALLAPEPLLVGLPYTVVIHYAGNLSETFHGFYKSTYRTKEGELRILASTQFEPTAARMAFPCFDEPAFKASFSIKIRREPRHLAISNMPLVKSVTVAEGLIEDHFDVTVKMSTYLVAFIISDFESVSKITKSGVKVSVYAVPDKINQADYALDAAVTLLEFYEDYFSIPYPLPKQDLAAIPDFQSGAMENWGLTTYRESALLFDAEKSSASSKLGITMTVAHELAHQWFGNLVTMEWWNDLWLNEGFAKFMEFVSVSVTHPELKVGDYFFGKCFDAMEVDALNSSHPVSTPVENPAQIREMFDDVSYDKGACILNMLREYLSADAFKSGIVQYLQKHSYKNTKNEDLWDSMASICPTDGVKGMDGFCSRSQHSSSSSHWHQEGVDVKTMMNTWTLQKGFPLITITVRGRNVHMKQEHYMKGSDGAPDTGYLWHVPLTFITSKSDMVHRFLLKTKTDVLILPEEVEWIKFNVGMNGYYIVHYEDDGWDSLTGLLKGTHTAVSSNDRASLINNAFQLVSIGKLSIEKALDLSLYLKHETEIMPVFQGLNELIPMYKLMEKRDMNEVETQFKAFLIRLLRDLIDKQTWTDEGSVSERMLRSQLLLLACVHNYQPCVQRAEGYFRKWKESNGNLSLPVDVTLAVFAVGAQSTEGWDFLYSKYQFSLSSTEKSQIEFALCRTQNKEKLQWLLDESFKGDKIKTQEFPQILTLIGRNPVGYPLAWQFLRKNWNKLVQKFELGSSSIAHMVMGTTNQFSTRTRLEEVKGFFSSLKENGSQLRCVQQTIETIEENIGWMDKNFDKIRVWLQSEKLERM
On to `COc1ccc(C(=O)O)cc1S(=O)(=O)Nc1cc(C(F)(F)F)ccc1N1C[C@H](O)[C@@H](F)C1` (relative stereo) [Example 190, 3-(N-(2-(trans-3-fluoro-4-hydroxypyrrolidin-1-yl)-5-(trifluoromethyl)phenyl)sulfamoyl)-4-methoxybenzoic acid], for which the IC50 (as a rule, the concentration at which inhibition is half-maximal) was less than 5000 nM. To `CCc1ccc(C(=O)O)cc1S(=O)(=O)Nc1cc(C(F)(F)F)ccc1N1CCCCC1` [Example 1, 4-Ethyl-3-(N-(2-(piperidin-1-yl)-5-(trifluoromethyl)phenyl)sulfamoyl)benzoic acid] belongs less than 500 nM; to `CC(C)c1ccc(C(=O)O)cc1S(=O)(=O)Nc1cc(C(F)(F)F)ccc1N1CCCCC1` [Example 3, 4-isopropyl-3-(N-(2-(piperidin-1-yl)-5-(trifluoromethyl)phenyl)sulfamoyl)benzoic acid], less than 500 nM; to `O=C(O)c1ccc(OC(F)(F)F)c(S(=O)(=O)Nc2cc(C(F)(F)F)ccc2N2CCCCC2)c1` [Example 4, 3-(N-(2-(piperidin-1-yl)-5-(trifluoromethyl)phenyl)sulfamoyl)-4-(trifluoromethoxy)benzoic acid], less than 500 nM. To `COc1ccc(C(=O)O)cc1S(=O)(=O)Nc1cc(C(F)(F)F)ccc1N1C[C@H](C)C[C@H](C)C1` [Example 6, 3-(N-(2-(cis-3,5-dimethylpiperidin-1-yl)-5-(trifluoromethyl)phenyl)sulfamoyl)-4-methoxybenzoic acid] belongs less than 500 nM. Next, `COc1ccc(C(=O)O)cc1S(=O)(=O)Nc1cc(C(F)(F)F)ccc1N1CC2CCC(C1)O2` [Example 7, 3-(N-(2-(8-oxa-3-azabicyclo[3.2.1]octan-3-yl)-5-(trifluoromethyl)phenyl)sulfamoyl)-4-methoxybenzoic acid]: less than 5000 nM; `COc1ccc(C(=O)O)cc1S(=O)(=O)Nc1cc(C(F)(F)F)ccc1N1C[C@H]2CN(C)C[C@H]2C1` [Example 8, 4-methoxy-3-(N-(2-(cis-5-methylhexahydropyrrolo[3,4-c]pyrrol-2 (1H)-yl)-5-(trifluoromethyl)phenyl)sulfamoyl)benzoic acid]: greater than 5000 nM. For `COc1ccc(C(=O)O)cc1S(=O)(=O)Nc1cc(C(F)(F)F)ccc1N1CCCC(F)(F)C1` [Example 9, 3-(N-(2-(3,3-difluoropiperidin-1-yl)-5-(trifluoromethyl)phenyl)sulfamoyl)-4-methoxybenzoic acid], the IC50 is less than 500 nM. For `COc1ccc(C(=O)O)cc1S(=O)(=O)Nc1cc(C(F)(F)F)ccc1N1C2CCCC1CC2` [Example 10, 3-(N-(2-(8-azabicyclo[3.2.1]octan-8-yl)-5-(trifluoromethyl)phenyl)sulfamoyl)-4-methoxybenzoic acid], the IC50 is less than 500 nM.

Take `COc1ccc(C(=O)O)cc1S(=O)(=O)Nc1cc(C(F)(F)F)ccc1N1CC2(CCCO2)C1` [Example 11, 3-(N-(2-(5-oxa-2-azaspiro[3.4]octan-2-yl)-5-(trifluoromethyl)phenyl)sulfamoyl)-4-methoxybenzoic acid]: the IC50 is less than 5000 nM. Next, `COc1ccc(C(=O)O)cc1S(=O)(=O)Nc1cc(C(F)(F)F)ccc1N1CCC(F)(F)CC1` [Example 12, 3-(N-(2-(4,4-difluoropiperidin-1-yl)-5-(trifluoromethyl)phenyl)sulfamoyl)-4-methoxybenzoic acid]: less than 500 nM.

As for `COc1ccc(C(=O)O)cc1S(=O)(=O)Nc1cc(C(F)(F)F)ccc1N1CC2CCC(C1)C2O` (stereo not shown) [Example 13, 3-(N-(2-(8-hydroxy-3-azabicyclo[3.2.1]octan-3-yl)-5-(trifluoromethyl)phenyl)sulfamoyl)-4-methoxybenzoic acid], the IC50 was less than 500 nM.

Take `COc1ccc(C(=O)O)cc1S(=O)(=O)Nc1cc(C(F)(F)F)ccc1N1CCC(O)C(F)(F)C1` (stereo not shown) [Example 14, 3-(N-(2-(3,3-difluoro-4-hydroxypiperidin-1-yl)-5-(trifluoromethyl)phenyl)sulfamoyl)-4-methoxybenzoic acid]: the IC50 was less than 500 nM. Take `CCC1(O)CCN(c2ccc(C(F)(F)F)cc2NS(=O)(=O)c2cc(C(=O)O)ccc2OC)CC1` [Example 15, 3-(N-(2-(4-ethyl-4-hydroxypiperidin-1-yl)-5-(trifluoromethyl)phenyl)sulfamoyl)-4-methoxybenzoic acid]: the IC50 was less than 500 nM. Next, `COc1ccc(C(=O)O)cc1S(=O)(=O)Nc1cc(C(F)(F)F)ccc1N1CCC(OC)C(C)(C)C1` (stereo not shown) [Example 16, 4-methoxy-3-(N-(2-(4-methoxy-3,3-dimethylpiperidin-1-yl)-5-(trifluoromethyl)phenyl)sulfamoyl)benzoic acid]: less than 500 nM.

In the case of `COc1ccc(C(=O)O)cc1S(=O)(=O)Nc1cc(C(F)(F)F)ccc1N1CCC(O)(C(F)(F)F)CC1` [Example 17, 3-(N-(2-(4-hydroxy-4-(trifluoromethyl)piperidin-1-yl)-5-(trifluoromethyl)phenyl)sulfamoyl)-4-methoxybenzoic acid], the half-maximal inhibitory concentration (IC50) is greater than 5000 nM.

Regarding `COc1ccc(C(=O)O)cc1S(=O)(=O)Nc1cc(C(F)(F)F)ccc1N1CC(C)(O)C1` [Example 18, 3-(N-(2-(3-hydroxy-3-methylazetidin-1-yl)-5-(trifluoromethyl)phenyl)sulfamoyl)-4-methoxybenzoic acid], the IC50 was less than 5000 nM. Next, `COc1ccc(C(=O)O)cc1S(=O)(=O)Nc1cc(C(F)(F)F)ccc1N1CC2(CCO2)C1` [Example 19, 3-(N-(2-(1-oxa-6-azaspiro[3.3]heptan-6-yl)-5-(trifluoromethyl)phenyl)sulfamoyl)-4-methoxybenzoic acid]: less than 5000 nM; `COc1ccc(C(=O)O)cc1S(=O)(=O)Nc1cc(C(F)(F)F)ccc1N1CCC(C)(O)C1` (stereo not shown) [Example 20, 3-(N-(2-(3-hydroxy-3-methylpyrrolidin-1-yl)-5-(trifluoromethyl)phenyl)sulfamoyl)-4-methoxybenzoic acid]: less than 5000 nM.

With `COc1ccc(C(=O)O)cc1S(=O)(=O)Nc1cc(C(F)(F)F)ccc1N1CC(O)(C2CC2)C1` [Example 21, 3-(N-(2-(3-cyclopropyl-3-hydroxyazetidin-1-yl)-5-(trifluoromethyl)phenyl)sulfamoyl)-4-methoxybenzoic acid], the IC50 was greater than 5000 nM.

Turning to `COc1ccc(C(=O)O)cc1S(=O)(=O)Nc1cc(C(F)(F)F)ccc1N1CC(C)(OC)C1` [Example 22, 4-methoxy-3-(N-(2-(3-methoxy-3-methylazetidin-1-yl)-5-(trifluoromethyl)phenyl)sulfamoyl)benzoic acid], the IC50 was greater than 5000 nM. In the case of `COc1ccc(C(=O)O)cc1S(=O)(=O)Nc1cc(C(F)(F)F)ccc1N1[C@@H]2CC[C@H]1C[C@@H](O)C2` [Example 23, 3-(N-(2-(endo-3-hydroxy-8-azabicyclo [3.2.1]octan-8-yl)-5-(trifluoromethyl)phenyl)sulfamoyl)-4-methoxybenzoic acid], the IC50 is greater than 5000 nM. As to `COc1ccc(C(=O)O)cc1S(=O)(=O)Nc1cc(C(F)(F)F)ccc1N1CCC(O)C(C)(C)C1` (stereo not shown) [Example 24, 3-(N-(2-(4-hydroxy-3,3-dimethylpiperidin-1-yl)-5-(trifluoromethyl)phenyl)sulfamoyl)-4-methoxybenzoic acid], the IC50 is less than 500 nM. As to `COc1ccc(C(=O)O)cc1S(=O)(=O)Nc1cc(C(F)(F)F)ccc1N1C[C@H]2CCCC[C@H]2C1` [Example 25, 4-methoxy-3-(N-(2-(cis-octahydroisoindol-2-yl)-5-(trifluoromethyl)phenyl)sulfamoyl)benzoic acid], the IC50 was less than 5000 nM. To `COc1ccc(C(=O)O)cc1S(=O)(=O)Nc1cc(C(F)(F)F)ccc1N1CC(O)(C(F)(F)F)C1` [Example 26, 3-(N-(2-(3-hydroxy-3-(trifluoromethyl)azetidin-1-yl)-5-(trifluoromethyl)phenyl)sulfamoyl)-4-methoxybenzoic acid] belongs less than 500 nM; to `COc1ccc(C(=O)O)cc1S(=O)(=O)Nc1cc(C(F)(F)F)ccc1N1CC[C@@H](O)[C@@H](F)C1` [Example 27, 3-(N-(2-((3S,4R)-3-fluoro-4-hydroxypiperidin-1-yl)-5-(trifluoromethyl)phenyl)sulfamoyl)-4-methoxybenzoic acid], less than 5000 nM. As for `COc1ccc(C(=O)O)cc1S(=O)(=O)Nc1cc(C(F)(F)F)ccc1N1CCC(C)(O)CC1` [Example 28, 3-(N-(2-(4-hydroxy-4-methylpiperidin-1-yl)-5-(trifluoromethyl)phenyl)sulfamoyl)-4-methoxybenzoic acid], the IC50 was less than 500 nM. Take `COc1ccc(C(=O)O)cc1S(=O)(=O)Nc1cc(C(F)(F)F)ccc1N1CCCC(C)(O)C1` (stereo not shown) [Example 29, 3-(N-(2-(3-hydroxy-3-methylpiperidin-1-yl)-5-(trifluoromethyl)phenyl)sulfamoyl)-4-methoxybenzoic acid]: the IC50 is less than 500 nM. Regarding `CCc1ccc(C(=O)O)cc1S(=O)(=O)Nc1cc(C(F)(F)F)ccc1N1C[C@H](C)C[C@H](C)C1` [Example 30], the IC50 was less than 500 nM. With `COc1ccc(C(=O)O)cc1S(=O)(=O)Nc1cc(C(F)(F)F)ccc1N1CCCCC1(C)C` [Example 31, 3-(N-(2-(2,2-dimethylpiperidin-1-yl)-5-(trifluoromethyl)phenyl)sulfamoyl)-4-methoxybenzoic acid], the IC50 is less than 500 nM. For `COc1ccc(C(=O)O)cc1S(=O)(=O)Nc1cc(C(F)(F)F)ccc1N1CCCOCC1` [Example 32, 3-(N-(2-(1,4-oxazepan-4-yl)-5-(trifluoromethyl)phenyl)sulfamoyl)-4-methoxybenzoic acid], the IC50 is less than 500 nM.

The record behind these values is patent publication US12485169B2, “Compounds” (GREY WOLF THERAPEUTICS LIMITED, priority 2018, dated 2025).
